Data from patent US10716769B2 (GUANGZHOU JTREAT BIOSCI. LTD., priority 2015, dated 2020).
Values after ≈ are worked out from the molar mass of the structure shown. Read-outs that look alike come from different tables or passages of the source.

Assays:
HIV-1 integrase = target: T1, HIV-1 integrase (Human immunodeficiency virus type 1 group M subtype B, UniProt P04585); test: Test of sample inhibition to HIV-1 integrase (ELISA, strand transfer); format: biochemical; details: for inhibition at 109 µg/mL: read-out: IC50 (HIV-1 IN inhibition), dash
T1 construct: purified HIV-1 integrase is added to donor substrates coated 96-well plate; made in house
Experimental: The half-inhibitory concentration IC50 for 3′ excision of the substrate and the strand transfer is in the range of 88.92-10.20 μg/ml, in which the best inhibitory activity of the compound is higher than that of the monomer compound of hydroxybenzoic acid. The mechanism of the HIV-1 integrase is a two-step reaction: 1) 3′ Processing: the integrase binds to the specific sequences of the long terminal repeat region (LTR) of the proviral DNA to form a stable complex, then the endonucleotides of 3′ end of nucleoside is processed, and the GT dinucleotide of the sequence . . . […] Thus, the activity of the integrase inhibitor is embodied in inhibiting the excision of the 3′end of the viral DNA or the strand transfer, and is represented by a half-inhibitory concentration IC50.
In vitro integrase test, 30 synthetic oligonucleotides are used as donor substrates, 20 synthetic oligonucleotides are used as target substrates. Purified HIV-1 integrase is added to donor substrates coated 96-well plate, ELISA reaction is performed, the product of the strand transfer of target DNA is detected, color development is conducted by biotin-labeled alkaline phosphatase system, and the microplate reader is used to measure the OD value.
First, inhibitors of the enzyme may be screened by adding a sample to the reaction system. Before use, the sample is prepared with DMSO to an appropriate concentration, and then is diluted 5 times at 4 dilutions. The sample after dilution is added into the donor substrate coated 96-well plate, and then added to the reaction Buffer containing the genetically engineered target enzyme and the biotin-target substrate, incubated under optimal reaction conditions, and colored by biotin-labeled alkaline phosphatase system, and the OD value for absorbance value at 405 nm is measured.
30 synthetic oligonucleotides are used as donor substrates, 20 synthetic oligonucleotides are used as target substrates, purified HIV-1 integrase is added to donor substrates coated 96-well plate, ELISA reaction is performed, the product of the strand transfer of target DNA is detected, color development is conducted by biotin-labeled alkaline phosphatase system, and the OD value is measured by a microplate reader. The addition of samples to the reaction system can be used to screen inhibitors for the enzyme.
1. HIV-1 IN: it is extracted and saved by Chinese National New Drug Screening Center and Institute of Pharmaceutical Biotechnology under Chinese Academy of Medical Sciences.
2. Sample Treatment: 10 samples A1-A10 dissolved into DMSO prior to use are prepared into suitable concentrations, and then diluted 5 times at 4 dilutions. Donor substrate and target substrate are from Shanghai Biochemical Synthesis.
3. Method for Test: the samples after dilution are added into the donor substrate coated 96-well plate, then added to the reaction Buffer containing the genetically engineered target enzyme and the biotin-target substrate, incubated under optimal reaction conditions, and colored by biotin-labeled alkaline phosphatase system, and the OD value for absorbance value at 405 nm is measured.

HPV 6/11 Virus = test: HPV detection via fluorescence quantitative PCR in genital warts tissue homogenate; design: species or system human papillomavirus; details: for HPV 6/11 virus detection, in words: 24 hours after addition into the tissue homogenate of genital warts; for HPV 6/11 Virus: genital warts tissue homogenate, 37° C., 24 hours, FQ-PCR
From the text: (§1) The aforesaid compounds and/or compositions containing the same are effective in killing and inhibiting HPV type 6/11 and type 16/18, which can be used for the preparation of drugs for preventing and treating viral infection of HPV, preventing and treating genital warts, flat warts, common warts, vaginitis, cervicitis and cervical erosion, cervical cancer, esophageal cancer and other cancers caused by HPV. The present invention observes the effect of active ingredients and products by the detection of the change in the amount of the HPV virus through the real-time quantitative PCR. Such method has been applied in several publications (Youling C A I, et al., Chinese STD/AIDS, 2002, 8: 2,108; Yuansheng W U, Ruijiang F A N, et al., Practical Application of Integrated Chinese and Western Medicine in Clinics, 2003, 3: 2,1).
(§2) The microemulsion obtained in example 1 is used as a test sample and saline for blank control.
(§3) The standard clinical genital warts specimens from a variety of patients after being cut off are washed with saline for removing bloods, and are cut into pieces under aseptic conditions, added with saline in 3 times of their volumes to be uniformly mixed, grinded into homogenate and placed at −40° C. for use.
(§4) Each test sample drug microemulsion and the saline of 50 μl for each are respectively added with 50 μl the genital warts tissue homogenate, and incubated at 37° C. for 24 hours; tests are performed according to the operation procedure provided by the HPV6, 11 and 16, 18 type FQ-PCR diagnostic kits provided by Da'an Gene Diagnostic Center. 0.2 ml of DNA extracted by the conventional alkaline lysis method is put into the thin-walled reaction tube, and simultaneously added with primers, F-PROBE, DNTP, DNA polymerase, buffers and the like in a certain concentration; ABI PRISM™ 7700 fluorescence quantitative PCR amplifier is used to repeat 40 circulations each with 45 s at 93° C. and 120 s at 55° C. after predegeneration at 93° C. for 2 mins; the quantitative results are automatically analyzed by the computer software to calculate the quantitative results of the initial copy number. The data are shown in Table 2 (completed by Da'an Gene Clinical Test Center).

HPV16/18 = test: as above; design: species or system human papillomavirus; details: for HPV16/18 virus detection, in words: 24 hours after addition into the tissue homogenate of genital warts; for HPV16/18: genital warts tissue homogenate, 37° C., 24 hours, FQ-PCR
From the text: as §1, §2, §3, §4

Vero cells = test: Half toxic concentration in the anti-herpes screening; format: cell-based, African green monkey
Experimental: Vero cells (kidney cells of African green monkey) are used as viral hosts to test the inhibition degree of the samples to cytopathic effects of the Vero cell caused by herpes virus type I and type II. 2. Sample treatment: the sample is dissolved in DMSO at an appropriate concentration before use, and diluted with the culture medium 3 times at a total of 8 dilutions for test. 4.

HSV-I, VR733 strain = test: Inhibition of cytopathic effects of Vero cells caused by herpes virus type I; format: cell-based; details: for IC50: read-out: IC50 Against HSV-1
From the text: (§5) Vero cells (kidney cells of African green monkey) are used as viral hosts to test the inhibition degree of the samples to the cytopathic effects of Vero cells caused by herpes virus type I and type II.
(§6) Vero cells (kidney cells of African green monkey) are used as viral hosts to test the inhibition degree of the samples to cytopathic effects of the Vero cell caused by herpes virus type I and type II.
(§7) 1. Virus strains: HSV-I, VR733 strain, and HSV-II, SAV strain, which both are provided by ATCC.
(§8) 2. Sample treatment: the sample is dissolved in DMSO at an appropriate concentration before use, and diluted with the culture medium 3 times at a total of 8 dilutions for test.
(§9) 3. Positive control drug: acyclovir (ACV) produced by the Hubei Ke Yi pharmaceutical factory.

HSV-II, SAV strain = test: Inhibition of cytopathic effects of Vero cells caused by herpes virus type II; format: cell-based; details: for IC50: read-out: IC50 Against HSV-II
From the text: as §5, §6, §7, §8, §9

[1] = Vero cells, CPE 48 hours, Reed-Muench

Row | SMILES | IC50 (HIV-1 integrase) [µM] | HPV 6/11 virus detection, in words (HPV 6/11 Virus) | HPV 6/11 Virus (HPV 6/11 Virus) | HPV16/18 virus detection, in words (HPV16/18) | HPV16/18 (HPV16/18) | further results
1 | O=C(c1ccccc1O)c1cccc(O)c1O [2,2′3′-trihydroxybenzophenone] | 45.4 | can no longer be detected | 0 copy/ml | can no longer be detected | 0 copy/ml | 
2 | O=C(c1ccccc1O)c1ccccc1O [2,2′-dihydroxybenzophenone] | 71.5 | can no longer be detected | 0 copy/ml | can no longer be detected | 0 copy/ml | TC50 half toxic concentration (Vero cells): 64.15 mg/L (≈ 299 µM); IC50 (HSV-I, VR733 strain; Human alphaherpesvirus 1, Vero, 48 h): 28.7 mg/L (≈ 134 µM); IC50 (HSV-II, SAV strain; Human alphaherpesvirus 2, Vero, 48 h): 28.7 mg/L (≈ 134 µM)
3 | O=C(c1ccc(O)cc1O)c1cc(O)c(O)c(O)c1O [2,3,4,2′,4′,5-hexahydroxybenzophenone] |  |  |  |  |  | IC50 Against HSV-1 (HSV-I, VR733 strain; [1]): 28.74 mg/L (≈ 103 µM); IC50 Against HSV-II (HSV-II, SAV strain; [1]): 28.74 mg/L (≈ 103 µM)
4 | O=C(O)c1cccc(O)c1O [2,3-dihydroxybenzoic acid, reference compound] |  | have a high concentration | 2.30 × 10^4 copy/ml | have a high concentration | 3.20 × 10^3 copy/ml | inhibition at 109 µg/mL (HIV-1 integrase): < 50%
5 | O=C(O)c1cc(O)c(O)c(O)c1 [3,4,5-trihydroxybenzoic acid, reference compound] | 591 |  | 0 copy/ml |  | 0 copy/ml | 
6 | O=C(O)c1ccc(O)c(O)c1 [3,4-dihydroxybenzoic acid, reference compound] |  | have a high concentration | 1.90 × 10^4 copy/ml | have a high concentration | 8.50 × 10^4 copy/ml | inhibition at 109 µg/mL (HIV-1 integrase): < 50%
7 | Nc1nc2c(ncn2COCCO)c(=O)[nH]1 [ACV, acyclovir, reference compound] |  |  |  |  |  | IC50 (HSV-I, VR733 strain; Human alphaherpesvirus 1, Vero cells, CPE 48 hours, Reed-Muench): 1.09 mg/L (≈ 4.85 µM); IC50 (HSV-II, SAV strain; Human alphaherpesvirus 2, Vero cells, CPE 48 hours, Reed-Muench): 1.23 mg/L (≈ 5.46 µM)
